These results are taken from the Kinase Knowledgebase extract (Sharma et al. 2016).

pKi: −log10 of the molar value.

As a reminder, the pKi is the negative decadic logarithm of the Ki, by convention in mol/L. Higher therefore signals a small Ki.

This assay deals with PIK3CG (human) (UniProt P48736). The assay is described as follows: Inhibition of PIK3CG Kinase Activity.
Chain of PIK3CG (human) (P48736 whole entry, looked up): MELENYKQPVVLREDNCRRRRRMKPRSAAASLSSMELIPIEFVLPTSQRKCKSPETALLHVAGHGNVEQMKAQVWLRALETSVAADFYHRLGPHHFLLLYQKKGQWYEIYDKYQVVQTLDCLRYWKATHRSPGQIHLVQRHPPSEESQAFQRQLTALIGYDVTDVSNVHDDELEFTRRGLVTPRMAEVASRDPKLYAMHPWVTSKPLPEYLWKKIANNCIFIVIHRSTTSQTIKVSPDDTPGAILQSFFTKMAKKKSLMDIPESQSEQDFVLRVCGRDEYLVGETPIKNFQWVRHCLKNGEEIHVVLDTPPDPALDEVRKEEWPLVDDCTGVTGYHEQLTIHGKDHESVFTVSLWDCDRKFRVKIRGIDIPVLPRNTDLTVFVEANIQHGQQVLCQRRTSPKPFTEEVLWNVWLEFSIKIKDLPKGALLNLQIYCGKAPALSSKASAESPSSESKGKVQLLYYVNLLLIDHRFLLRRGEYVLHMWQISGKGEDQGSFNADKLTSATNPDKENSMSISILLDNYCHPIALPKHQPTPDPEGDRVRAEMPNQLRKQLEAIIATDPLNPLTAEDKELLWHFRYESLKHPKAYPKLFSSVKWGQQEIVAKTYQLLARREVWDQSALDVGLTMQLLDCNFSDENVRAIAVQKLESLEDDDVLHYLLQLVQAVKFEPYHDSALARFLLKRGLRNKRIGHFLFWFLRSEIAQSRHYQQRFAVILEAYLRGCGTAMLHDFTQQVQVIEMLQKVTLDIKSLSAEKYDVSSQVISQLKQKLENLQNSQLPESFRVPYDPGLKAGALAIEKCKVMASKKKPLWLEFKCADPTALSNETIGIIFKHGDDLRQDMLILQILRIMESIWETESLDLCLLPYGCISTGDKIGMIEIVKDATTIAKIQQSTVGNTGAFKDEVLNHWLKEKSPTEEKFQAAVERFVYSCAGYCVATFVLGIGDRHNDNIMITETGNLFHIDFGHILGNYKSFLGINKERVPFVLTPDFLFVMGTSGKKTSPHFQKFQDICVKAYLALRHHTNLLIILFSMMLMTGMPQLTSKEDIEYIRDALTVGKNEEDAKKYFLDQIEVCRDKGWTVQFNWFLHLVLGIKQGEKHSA
With `COc1cc(-c2ccc3c(n2)CN(c2ccnc(CC#N)c2)C3=O)cnc1OC`, the negative logarithm of the Ki (pKi) is > 7.00.
Consider `COc1cc(-c2ccc3c(n2)CN(c2cnn(CC(F)F)c2)C3=O)cnc1OC`, for which the pKi was > 7.00.
In the case of `Cc1cc(-c2cncc(OC(F)F)c2)nc2c1C(=O)N(c1cnn(C[C@H](C)O)c1)[C@@H]2C`, the pKi was > 7.00.
In the case of `COc1cc(-c2ccc3c(n2)[C@H](C)N(c2cn(CC(F)(F)F)cn2)C3=O)cnc1OC`, the pKi was > 7.00.
The figure for `COc1ncc(-c2cc(C)c3c(n2)CN(c2ccn(C(C)(C)C#N)n2)C3=O)cc1OCC(F)F` is > 7.00.
Then `COc1cc(-c2ccc3c(n2)[C@H](OC)N(c2cnn(CC(F)(F)F)c2)C3=O)cnc1OC`, with > 7.00; and `CCn1ccc(N2Cc3nc(-c4cnc(OC)c(OC)c4)ccc3C2=O)n1`, with > 7.00; and `CCn1ncc(N2Cc3nc(-c4cnc(OC)c(OC)c4)cc(C)c3C2=O)n1`, with > 7.00.
`Cc1cc(-c2cncc(C(=O)N3CCC[C@@H]3C)c2)nc2c1C(=O)N(c1cnn(CC(F)(F)F)c1)C2(C)C` showed a pKi of 6.31 to 7.00.
For the compound `COc1cc(-c2ccc3c(n2)[C@H](C)N(c2cnn(CC(C)(C)O)c2)C3=O)cnc1OC`, the negative logarithm of the Ki (pKi) is > 7.00.
In the case of `COc1cc(-c2ccc3c(n2)CN(c2ccc(OCCCC(F)(F)F)nc2)C3=O)cnc1OC`, the negative logarithm of the Ki (pKi) is > 7.00.
As for `COCc1cc(N2Cc3nc(-c4cnc(OC)c(OC)c4)ccc3C2=O)nn1C`, the negative-log Ki (pKi) was > 7.00.
For the compound `COc1cc(-c2ccc3c(n2)CN(c2ccc(N4CCN(C)CC4)nc2)C3=O)cnc1OC`, the pKi was > 7.00.
The figure for `COc1ncc(-c2ccc3c(c2)CN(c2cnn(CC#N)c2)C3=O)c(OC)n1` is > 7.00; for `Cc1cc(-c2cnc(C)c(OCC(F)(F)F)c2)nc2c1C(=O)N(c1cnn(CC(F)(F)F)c1)C2(C)C` it is > 7.00.
Regarding `COc1cc(-c2cc(C)c3c(n2)CN(c2ccc(CO)nc2)C3=O)cnc1OC`, the pKi is > 7.00.
The compound `COc1cncc(-c2cc(C)c3c(n2)C(C)(C)N(c2cnn(C4CC4)c2)C3=O)c1` had a pKi of 6.31 to 7.00.
For `CCc1n[nH]c(N2Cc3cc(-c4cnc(OC)c(OC)c4)ccc3C2=O)n1`, the negative logarithm of the Ki (pKi) was > 7.00.
`COc1cc(-c2cc(C)c3c(n2)CN(c2cc(C)[nH]n2)C3=O)cnc1OC`: the negative-log Ki (pKi) is > 7.00.
For the compound `COc1cc(-c2ccc3c(n2)C(C)N(c2ccnc(C(C)(C)C#N)c2)C3=O)cnc1OC` (stereo not given), the negative-log Ki (pKi) is 6.31 to 7.00.
On to `COc1cc(-c2cc(C)c3c(n2)C(C)(C)N(c2cnn(CC(F)(F)F)c2)C3=O)cnc1C`, for which the negative logarithm of the Ki (pKi) was > 7.00.
Turning to `Cc1cc(-c2cncc(Cl)c2)nc2c1C(=O)N(c1cnn(CC#N)c1)C2`, the pKi is > 7.00.
As for `COc1ncc(-c2ccc3c(n2)C(C)N(c2cnn(CC(F)(F)F)c2)C3=O)cc1OC(F)F` (stereo not given), the pKi was > 7.00.
`COc1cncc(-c2cc(C)c3c(n2)C(C)(C)N(c2cc[nH]n2)C3=O)c1`: the negative-log Ki (pKi) is 6.31 to 7.00.
On to `COc1cc(-c2ccc3c(c2)CN(c2cnn(CC#N)c2)C3=O)cnc1Cl`, for which the negative logarithm of the Ki (pKi) is 6.31 to 7.00.
In the case of `COc1cc(-c2ccc3c(n2)C(C)N(c2ccn(C[C@H](C)O)n2)C3=O)cnc1OC` (stereo not given in full), the pKi is > 7.00.
On to `COc1cc(-c2ccc3c(n2)C(C)N(c2ccc(N4CCC(O)C4)nc2)C3=O)cnc1OC` (stereo not given), for which the pKi was 6.31 to 7.00.
Then `COc1cc(-c2ccc3c(n2)CN(c2ccc(N4CCC(CO)C4)nc2)C3=O)cnc1OC` (stereo not given), with 6.31 to 7.00; and `COc1cc(-c2ccc3c(n2)CN(c2cnn(CCCO)c2)C3=O)cnc1OC`, with > 7.00; and `CCc1cc(N2Cc3nc(-c4cnc(OC)c(OC)c4)cc(C)c3C2=O)n[nH]1`, with > 7.00.
The figure for `COc1cc(-c2cc(C)c3c(n2)CN(c2cncc(F)c2)C3=O)cnc1OC` is > 7.00; for `COc1cc(-c2cc(C)c3c(n2)CN(c2cccc(C(C)(C)C#N)n2)C3=O)cnc1OC` it is > 7.00.
In the case of `Cc1cc(-c2cncc(S(C)(=O)=O)c2)nc2c1C(=O)N(c1cnn(CC(F)(F)F)c1)C2`, the pKi is > 7.00.
On to `COc1ncc(-c2cc(C)c3c(n2)CN(c2cnn(CC#N)c2)C3=O)c(OC)n1`, for which the negative-log Ki (pKi) is > 7.00.
For `CCCNC(=O)c1cncc(-c2cc(C)c3c(n2)C(C)(C)N(c2cnn(CC(F)(F)F)c2)C3=O)c1`, the pKi is > 7.00.
For `COc1cncc(-c2cc(C)c3c(n2)CN(c2ccn([C@H]4CCOC4)n2)C3=O)c1`, the negative-log Ki (pKi) was > 7.00.
The figure for `COc1cc(-c2cc(C)c3c(n2)CN(c2cncc(OCCO)c2)C3=O)cnc1OC` is > 7.00.
As to `COc1cc(-c2ccc3c(n2)[C@H](C)N(c2cccc(C(C)(C)C#N)n2)C3=O)cnc1OC`, the negative logarithm of the Ki (pKi) was > 7.00.
In the case of `COc1cc(-c2cc(C)c3c(n2)[C@]2(CCCO2)N(c2cnn(CC(F)(F)F)c2)C3=O)cnc1OC(C)C`, the negative-log Ki (pKi) was > 7.00.
Then `COc1cc(-c2cc(C)c3c(n2)CN(c2cccc(C4(C#N)CC4)c2)C3=O)cnc1OC`, with > 7.00.
On to `COc1cc(-c2ccc3c(c2)CN(c2cccnc2)C3=O)cnc1OC`, for which the negative logarithm of the Ki (pKi) was 6.31 to 7.00.
Take `COc1cc(-c2cc(C)c3c(n2)CN(c2cncc(OC(F)F)c2)C3=O)cnc1OC`: the pKi was > 7.00.
The compound `COc1cc(-c2ccc3c(n2)CN(c2cnn(CCN4CCCCC4)c2)C3=O)cnc1OC` gave a pKi of 6.31 to 7.00.
Then `Cc1cc(-c2cncc(CO)c2)cc2c1C(=O)N(c1cnn(CC(F)(F)F)c1)C2C` (stereo not given), with > 7.00; and `COc1ncc(-c2cc(C)c3c(n2)CN(c2cnn(C)c2)C3=O)cc1OC(F)F`, with > 7.00.
Then `COc1ncc(-c2cc(C)c3c(n2)C(C)(C)N(c2cnn(CC(F)(F)F)c2)C3=O)cc1NS(=O)(=O)N(C)C`, with > 7.00; and `COc1cc(OC)cc(-c2cc(C)c3c(n2)[C@H](C)N(c2cnn(CC(F)(F)F)c2)C3=O)c1`, with > 7.00.
Regarding `COc1cncc(-c2cc(C)c3c(n2)C2(CN(C(C)=O)C2)N(c2cnn(CC(F)(F)F)c2)C3=O)c1`, the pKi is > 7.00.
The figure for `COc1cc(-c2ccc3c(n2)[C@@H](C)N(c2ccn(C[C@H](C)O)n2)C3=O)cnc1OC` is > 7.00; for `COc1ncc(-c2cc(C)c3c(n2)CN(c2cnn(C(C)(C)C#N)c2)C3=O)c(OC)n1` it is > 7.00; for `O=C1c2ccc(-c3cncc(OC(F)F)c3)nc2CN1c1cc[nH]n1` it is 6.31 to 7.00.
As for `COc1cc(-c2cc(C)c3c(n2)CN(c2cnn(CC(F)(F)F)c2)C3=O)cnc1O`, the pKi is > 7.00.
In the case of `COc1cc(-c2cc(C)c3c(n2)CN(c2ccsc2)C3=O)cnc1OC`, the negative-log Ki (pKi) is > 7.00.
`Cc1cc(-c2cnc(C)c(C(=O)N(C)C)c2)nc2c1C(=O)N(c1cnn(CC(F)(F)F)c1)C2(C)C`: the pKi is > 7.00.
The figure for `COc1ccc(-c2cc(C)c3c(n2)CN(c2cnn(CC(F)(F)F)c2)C3=O)s1` is > 7.00; for `CCOc1ncc(-c2cc(C)c3c(n2)[C@]2(CCCO2)N(c2cnn(CC(F)(F)F)c2)C3=O)cc1OC` it is > 7.00.
Regarding `COc1ccc(-c2cc(C)c3c(c2)CN(c2cnn(CC(F)(F)F)c2)C3=O)cc1OC`, the negative-log Ki (pKi) was > 7.00.
In the case of `COc1cc(-c2ccc3c(n2)CN(c2ccc(N4CCOCC4)nc2)C3=O)cnc1OC`, the pKi is 6.31 to 7.00.
Take `COc1cc(-c2ccc3c(n2)CN(c2cnn(Cc4cc(C)no4)c2)C3=O)cnc1OC`: the pKi was > 7.00.
Compound `CCC(=O)Nc1cncc(-c2cc(C)c3c(n2)C(C)(C)N(c2cnn(CC(F)(F)F)c2)C3=O)c1` gave a pKi of 6.31 to 7.00.
Turning to `Cc1cc(-c2cncc(C(F)(F)F)c2)cc2c1C(=O)N(c1cnn(CC(F)(F)F)c1)C2C` (stereo not given), the pKi is > 7.00.
Take `COc1cc(-c2cc(C)c3c(c2)CN(c2cnn([C@@H](CO)C(F)(F)F)c2)C3=O)cnc1OC`: the pKi was > 7.00.
Consider `CCNS(=O)(=O)c1cc(-c2cc(C)c3c(n2)C(C)(C)N(c2cnn(CC(F)(F)F)c2)C3=O)cnc1OC`, for which the negative logarithm of the Ki (pKi) was > 7.00.
On to `COc1cc(-c2ccc3c(n2)CN(c2cnn(C[C@H](O)CC#N)c2)C3=O)cnc1OC`, for which the negative-log Ki (pKi) is > 7.00.
`Cc1cc(-c2cncc(OC(F)F)c2)nc2c1C(=O)N(c1cnn(CC(F)(F)F)c1)C21CC1`: the negative logarithm of the Ki (pKi) is > 7.00.
As to `CCOc1ncc(-c2cc(C)c3c(n2)C2(CC2)N(c2cnn(CC(F)(F)F)c2)C3=O)cc1OC`, the negative-log Ki (pKi) is > 7.00.
With `COc1cc(-c2cc(C)c3c(n2)CN(c2cn[nH]c2)C3=O)cnc1OC`, the pKi was > 7.00.
Regarding `COc1cc(-c2cc(Cl)c3c(n2)CN(c2cnn(CC(F)(F)F)c2)C3=O)cnc1OC`, the negative-log Ki (pKi) was > 7.00.
Then `COc1cc(-c2ccc3c(c2)CN(c2cnn(CCC#N)c2)C3=O)cnc1OC`, with > 7.00; and `COc1cc(-c2ccc3c(n2)CN(c2ccc(=O)n(C)c2)C3=O)cnc1OC`, with 6.31 to 7.00.
Turning to `Cc1cc(-c2cnc(N)c(OC(F)F)c2)nc2c1C(=O)N(c1cnn(CC(F)(F)F)c1)C2`, the pKi was > 7.00.
The figure for `COc1cc(-c2cc(C)c3c(n2)[C@](C)(O)N(c2cnn(CC(F)(F)F)c2)C3=O)cnc1OC` is > 7.00.
On to `CCc1cc(N2Cc3nc(-c4cnc(OC)c(OC)c4)ccc3C2=O)nn1C[C@H](C)O`, for which the negative logarithm of the Ki (pKi) was > 7.00.
Regarding `COc1cc(-c2cc(C)c3c(c2)CN(c2cnn(CC(F)(F)F)c2)C3=O)cnc1OC`, the negative-log Ki (pKi) was > 7.00.
As to `CCOc1cc(-c2cc(C)c3c(c2)CN(c2cnn(CC(F)(F)F)c2)C3=O)cnc1OCC`, the pKi was > 7.00.
With `Cc1cc(-c2cncc(OCC(F)(F)F)c2)nc2c1C(=O)N(c1cnn(CC(F)F)c1)C2(C)C`, the pKi is > 7.00.
For the compound `Cc1cc(-c2cncc(OC(F)F)c2)nc2c1C(=O)N(c1cn[nH]c1)C2(C)C`, the pKi is > 7.00.
`COc1cc(-c2ccc3c(n2)C(C)N(c2cnn(C[C@@H](C)O)c2)C3=O)cnc1OC` (stereo not given in full) had a negative-log Ki (pKi) of 6.31 to 7.00.
Then `CCOc1ncc(-c2cc(C)c3c(n2)CN(c2ccon2)C3=O)cc1OC`, with > 7.00; and `COc1cc(-c2ccc3c(n2)C(C)(C)N(c2cnn(CC#N)c2)C3=O)cnc1OC`, with > 7.00.
Take `Cc1cncc(-c2cc(C)c3c(n2)CN(c2cnn(CC#N)c2)C3=O)c1`: the pKi was > 7.00.
In turn, `COc1cc(-c2ccc3c(n2)CN(c2cnn(CC(F)(F)F)c2)C3=O)cnc1OC(F)F` showed a pKi of 6.31 to 7.00.
As to `COc1ncc(-c2cc(C)c3c(n2)CN(c2ccn(C4COC4)n2)C3=O)cc1OC(C)C`, the pKi is > 7.00.
As for `COc1cncc(-c2cc(C)c3c(c2)CN(c2cnn(CC(F)(F)F)c2)C3=O)c1`, the pKi was > 7.00.
Then `COc1cc(-c2ccc3c(n2)[C@@H](C)N(c2ccn(CC(C)(C)F)n2)C3=O)cnc1OC`, with > 7.00.
